Laboratory results: patent US20240034731A1, “AZA-QUINAZOLINE COMPOUNDS AND METHODS OF USE” (Iambic Therapeutics, Inc., priority 2022, published 2024)

Tests used:
OVCAR-3 cells = assay: Cell Growth Inhibition, OVCAR-3 (CellTiterGlo, 6 days); type: cell-based; conditions: Homo sapiens, 144 h, OVCAR-3, 6-day treatment
Source text: (§1) MCF-7 and OVCAR-3 cells were used to evaluate the anti-proliferation activity of the CDK inhibitors. MCF-7 (ATCC, HTB-22) cells are epithelial cells from a patient with ER+ metastatic adenocarcinoma. OVCAR-3 (ATCC, HTB-161) cells were derived from malignant ascites of a patient with ovarian cancer and are known to have CCNE1 amplification. Both cell lines were maintained in RPMI media supplemented with 10% fetal bovine serum. For cell growth inhibition assay, CDK inhibitors in DMSO solution were dispensed with either Echo 655 (Beckman Coulter) or Tecan D300e (HP) into 384-well plates (Corning #3765) and the 384-well plates were UV-sterilized prior to the assay. The inhibitors were typically tested in the 10-10,000 nM concentration range with half-log serial dilutions. MCF-7 or OVCAR-3 (500 cells/30 μL/well) were added to each well using Multidrop Combi (ThermoFisher) using standard cassettes. The assay plates with cells were cultured at 37° C., 5% CO2 for 6 days. At the end of the 6-day treatment, 30 μL of CellTiterGlo 2.0 (Promega) was added to each well and the luminescent signal was read using CLARIOstar plus (BMG). The percentage of cell growth inhibition (% CGI) was calculated using the following formula 00 CGI=100-100×luminescencesampie/luminescencecontroi. The half maximal inhibitory concentration (IC50) was determined by nonlinear curve fitting (four parameters, variable slope).

CDK6/Cyclin D3 = CDK6/Cyclin D3 (Homo sapiens (Human), UniProt Q00534); assay: CDK6/Cyclin D3 ADP-Glo Kinase Assay; type: biochemical; conditions: 100 uM ATP, read-out: CDK6/ CyclinD3 IC50
Protocol: CDK6/Cyclin D3 ADP-Glo Kinase Assay
The purpose of the CDK6/Cyclin D3 assay is to evaluate the inhibition (% inhibition and IC50 values) in the presence of small molecule inhibitors by using a Luminescent based ADP-Glo assay. CDK6/Cyclin D3 catalyzes the production of ADP from ATP. ADP-Glo assay monitors ADP producing biochemical reactions. ADP-Glo is performed in 2 steps upon completion of kinase reaction: a combined termination of kinase reaction and depletion of remaining ATP in the first step, and conversion of generated ADP to […] and the newly produced ATP to light output using luciferase/luciferin reaction in the second step. The luminescent signal generated is proportional to the ADP concentration produced and is correlated with the kinase activity CDK6/Cyclin D3 was purchased from Carna. […] The assay was initiated with the addition of ATP-containing substrate solution, following a 30-minute pre-incubation of enzyme and inhibitor at room temperature in the reaction mixture. The reaction was stopped after 90 minutes at room temperature by the addition of 10 uL of ADP-GLO Reagent. After a 90-minute incubation, 20 uL of Kinase Detection Reagent was added. Samples were incubated for 40 minutes, after which plate well luminescence was measured on a Envision microplate reader. The IC50 determinations were made from a plot of the fractional velocity as a function of inhibitor concentration fit to the 4 parameters IC50 equation.

MCF-7 cells = assay: Cell Growth Inhibition, MCF-7 (CellTiterGlo, 6 days); type: cell-based; conditions: Homo sapiens, MCF7, 144 h, MCF-7, 6-day treatment
Source text: as §1

CDK1/Cyclin B1 = CDK1/Cyclin B1 (Homo sapiens (Human), UniProt P06493); assay: CDK1/Cyclin B1 ADP-Glo Kinase Assay; type: biochemical; conditions: ADP-Glo, 80 uM ATP; read-out: CDK1 Cyclin B1 IC50
Protocol: CDK1/Cyclin B1 ADP-Glo Kinase Assay
(§2) The purpose of CDK1/Cyclin B1 assay is to evaluate the inhibition (% inhibition and IC50 values) of small molecule inhibitors by using a Luminescent based ADP-Glo assay. CDK1/Cyclin B1 catalyzes the production of ADP from ATP. ADP-Glo assay monitors ADP producing biochemical reactions. ADP-Glo is performed in 2 steps upon completion of kinase reaction: a combined termination of kinase reaction and depletion of remaining ATP in the first step, and conversion of generated ADP to ATP and the newly produced ATP to light output using luciferase/luciferin reaction in the second step. The luminescent signal generated is proportional to the ADP concentration produced and is correlated with the kinase activity. CDK1/Cyclin B1 was purchased from Carna (Cat 04-102). […] The assay was initiated with the addition of ATP-containing substrate solution, following a 30-minute pre-incubation of enzyme and inhibitor at room temperature in the reaction mixture. The reaction was stopped after 90 minutes at room temperature by the addition of 10 uL of ADP-GLO Reagent. After a 90 minute incubation, 20 uL of Kinase Detection Reagent was added. Samples were incubated for 40 minutes, after which plate well luminescence was measured on a Envision microplate reader. The IC50 determinations were made from a plot of the fractional velocity as a function of inhibitor concentration fit to the 4 parameters IC50 equation.

CDK4/Cyclin D1 = CDK4/Cyclin D1 (Homo sapiens (Human), UniProt P11802); assay: CDK4/Cyclin D1 CHEF Assay (AQT0258 peptide); type: biochemical; conditions: 200 uM ATP, read-out: CDK4/ CyclinD1 AQT IC50
Source text: CDK4/Cyclin D1 CHEF Assay
The purpose of CDK4/Cyclin D1 assay is to evaluate the inhibition (% inhibition and IC50 values) of small molecule inhibitors by using a Chelation-Enhance Fluorescence (CHEF) assay. In a CHEF assay, phosphorylation of a peptide substrate results in proportional increase in fluorescence. CHEF kinase assay use peptide substrates containing a synthetic alpha-amino acid with a side chain bearing an 8-hydroxyquinoline derivative (sulfonamido-oxide, Sox). Upon phosphorylation of a nearby serine, threonine or tyrosine and in the presence of Mg(II), the spectral properties of the Sox residue are altered, emitting 485 nm wavelength light when excited with a 360 nm wavelength light source. CDK4/Cyclin D1 catalyzes the phosphoryl transfer to the SOX-labeled substrate peptide AQT0258 from Assayquant Technologies. […] The reaction was initiated with the addition of substrate solution, following a 30-minute pre-incubation of enzyme and inhibitor at 22° C. in the reaction mix. Reactions were allowed to proceed for 3 hrs at 22° C., followed by fluorescence read of the reaction. The IC50 determinations were made from a plot of the fractional velocity as a function of inhibitor concentration fit to the 4 parameters IC50 equation.

CDK2/Cyclin E1 = CDK2/Cyclin E1 (Homo sapiens (Human), UniProt P24941); assay: CDK2/Cyclin E1 Full length ADP-Glo Kinase Assay; type: biochemical; conditions: 20 uM ATP, read-out: CDK2/ CyclinE1 IC50
Protocol: CDK2/Cyclin E1 Full length ADP-Glo Kinase Assay
as §2, with “of CDK2/Cyclin E1” for “of CDK1/Cyclin B1”, “assay. CDK2/Cyclin E1 full length” for “assay. CDK1/Cyclin B1”, “activity. CDK2/Cyclin E1” for “activity. CDK1/Cyclin B1”, “from Eurofins” for “from Carna”, “(Cat 14-475M).” for “(Cat 04-102).”

CDK4/Cyclin D1, sequence (P11802 whole entry): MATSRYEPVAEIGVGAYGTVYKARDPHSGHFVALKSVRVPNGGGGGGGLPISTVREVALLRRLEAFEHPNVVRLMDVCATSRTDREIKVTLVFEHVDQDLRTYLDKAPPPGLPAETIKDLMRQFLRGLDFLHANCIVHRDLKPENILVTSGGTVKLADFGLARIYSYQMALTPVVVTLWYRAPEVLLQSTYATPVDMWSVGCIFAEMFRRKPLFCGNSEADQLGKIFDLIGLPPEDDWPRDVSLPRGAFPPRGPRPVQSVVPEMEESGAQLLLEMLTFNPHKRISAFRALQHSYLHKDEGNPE
CDK4/Cyclin D1, sequence (P24385 whole entry partner): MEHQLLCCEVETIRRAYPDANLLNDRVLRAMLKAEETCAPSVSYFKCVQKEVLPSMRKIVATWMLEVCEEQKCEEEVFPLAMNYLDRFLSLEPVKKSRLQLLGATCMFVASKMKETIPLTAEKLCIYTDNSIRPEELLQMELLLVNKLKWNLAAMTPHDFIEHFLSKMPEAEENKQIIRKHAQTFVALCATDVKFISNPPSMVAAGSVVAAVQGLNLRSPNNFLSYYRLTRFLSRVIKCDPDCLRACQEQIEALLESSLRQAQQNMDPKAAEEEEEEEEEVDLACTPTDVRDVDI
CDK1/Cyclin B1, sequence (P06493 whole entry): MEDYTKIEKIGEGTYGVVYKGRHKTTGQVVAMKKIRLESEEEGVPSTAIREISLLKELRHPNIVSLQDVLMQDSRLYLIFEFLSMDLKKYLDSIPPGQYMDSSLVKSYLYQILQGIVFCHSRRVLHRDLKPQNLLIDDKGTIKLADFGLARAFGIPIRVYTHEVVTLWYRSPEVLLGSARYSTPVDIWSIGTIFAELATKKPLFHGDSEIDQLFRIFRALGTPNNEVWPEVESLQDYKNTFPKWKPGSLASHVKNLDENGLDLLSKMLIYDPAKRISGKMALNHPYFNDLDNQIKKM
CDK1/Cyclin B1, sequence (P14635 whole entry partner): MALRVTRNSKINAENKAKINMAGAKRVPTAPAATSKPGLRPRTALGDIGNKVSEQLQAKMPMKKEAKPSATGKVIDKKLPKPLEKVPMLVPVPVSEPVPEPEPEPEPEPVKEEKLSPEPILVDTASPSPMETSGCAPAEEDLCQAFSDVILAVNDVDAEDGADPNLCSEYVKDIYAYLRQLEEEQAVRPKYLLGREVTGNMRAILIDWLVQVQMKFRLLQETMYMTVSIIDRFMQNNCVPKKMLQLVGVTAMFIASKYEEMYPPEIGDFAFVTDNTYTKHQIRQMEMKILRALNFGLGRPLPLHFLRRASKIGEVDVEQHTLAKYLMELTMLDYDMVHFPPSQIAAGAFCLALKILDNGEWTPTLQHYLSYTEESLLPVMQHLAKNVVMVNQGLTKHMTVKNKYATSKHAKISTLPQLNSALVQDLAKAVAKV
CDK6/Cyclin D3, sequence (Q00534 whole entry): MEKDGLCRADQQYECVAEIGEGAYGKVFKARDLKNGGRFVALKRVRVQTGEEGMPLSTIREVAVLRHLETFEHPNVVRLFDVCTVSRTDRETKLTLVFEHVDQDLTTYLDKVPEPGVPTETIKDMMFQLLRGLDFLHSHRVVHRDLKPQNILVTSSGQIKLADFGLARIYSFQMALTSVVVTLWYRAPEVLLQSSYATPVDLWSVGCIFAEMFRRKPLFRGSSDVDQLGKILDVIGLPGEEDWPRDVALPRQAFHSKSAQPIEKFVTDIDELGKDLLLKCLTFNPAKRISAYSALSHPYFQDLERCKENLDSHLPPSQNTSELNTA
CDK6/Cyclin D3, sequence (P30281 whole entry partner): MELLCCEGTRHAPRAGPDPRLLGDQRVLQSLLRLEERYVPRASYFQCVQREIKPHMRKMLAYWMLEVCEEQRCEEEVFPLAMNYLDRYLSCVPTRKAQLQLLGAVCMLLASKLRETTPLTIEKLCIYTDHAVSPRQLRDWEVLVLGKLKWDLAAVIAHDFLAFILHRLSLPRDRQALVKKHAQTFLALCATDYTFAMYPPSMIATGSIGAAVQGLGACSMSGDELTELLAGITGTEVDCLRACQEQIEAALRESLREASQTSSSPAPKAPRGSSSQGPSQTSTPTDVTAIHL

`CN1Cc2ccc(Nc3ncc4ccnc(N5CCC6(CCN(S(C)(=O)=O)C6)C5)c4n3)cc2C1` (stereo not drawn) [Compound 23, N-(2-methylisoindolin-5-yl)-8-(7-(methylsulfonyl)-2,7-diazaspiro[4.4]nonan-2-yl)pyrido[3,4-d]pyrimidin-2-amine] was tested, and the IC50 (OVCAR-3 cells) was < 200 nM, the IC50 (CDK6/Cyclin D3) was < 200 nM and the IC50 (MCF-7 cells) was < 200 nM. The IC50 (CDK1/Cyclin B1) was 500 to 2000 nM, the IC50 (CDK4/Cyclin D1) was < 200 nM and the IC50 (CDK2/Cyclin E1) was < 200 nM.

`CN1Cc2ccc(Nc3ncc4ccnc(N5CC6(C5)CS(=O)(=O)C6)c4n3)cc2C1` [Compound 24, 6-(2-((2-methylisoindolin-5-yl)amino)pyrido[3,4-d]pyrimidin-8-yl)-2-thia-6-azaspiro[3.3]heptane 2,2-dioxide] was tested, and the IC50 (OVCAR-3 cells) was 500 to 2000 nM, the IC50 (CDK6/Cyclin D3) was < 200 nM and the IC50 (MCF-7 cells) was 500 to 2000 nM. The IC50 (CDK1/Cyclin B1) was 500 to 2000 nM, the IC50 (CDK4/Cyclin D1) was < 200 nM and the IC50 (CDK2/Cyclin E1) was < 200 nM.

`Cc1cc2cnc(Nc3cnn(C4CC5(C4)CN(C)C5)c3)nc2c(N2CC3(C2)CN(S(C)(=O)=O)C3)n1` [Compound 26, 6-methyl-N-(1-(2-methyl-2-azaspiro[3.3]heptan-6-yl)-1H-pyrazol-4-yl)-8-(6-(methylsulfonyl)-2,6-diazaspiro[3.3]heptan-2-yl)pyrido[3,4-d]pyrimidin-2-amine] was tested, and the IC50 (OVCAR-3 cells) was > 2000 nM, the IC50 (CDK6/Cyclin D3) was 500 to 2000 nM and the IC50 (MCF-7 cells) was > 2000 nM. For the same compound, the IC50 (CDK1/Cyclin B1) was > 2000 nM, the IC50 (CDK4/Cyclin D1) was 200 to 500 nM and the IC50 (CDK2/Cyclin E1) was 200 to 500 nM.

For `Cc1cc2cnc(Nc3ccc4c(c3)CN(S(C)(=O)=O)C4)nc2c(N2CC3(CN(C)C3)C2)n1` [Compound 27, 6-methyl-8-(6-methyl-2,6-diazaspiro[3.3]heptan-2-yl)-N-(2-(methylsulfonyl)isoindolin-5-yl)pyrido[3,4-d]pyrimidin-2-amine], the IC50 (OVCAR-3 cells) was 500 to 2000 nM, the IC50 (CDK6/Cyclin D3) was 500 to 2000 nM and the IC50 (MCF-7 cells) was > 2000 nM. The IC50 (CDK1/Cyclin B1) was 500 to 2000 nM, the IC50 (CDK4/Cyclin D1) was 500 to 2000 nM and the IC50 (CDK2/Cyclin E1) was < 200 nM.

In the case of `Cc1cc2cnc(Nc3ccc(N4CC5(CN(C)C5)C4)cc3)nc2c(N2CCC(C#N)(C3CC3)C2)n1` (stereo not drawn) [Compound 28, 3-cyclopropyl-1-(6-methyl-2-((4-(6-methyl-2,6-diazaspiro[3.3]heptan-2-yl)phenyl)amino)pyrido[3,4-d]pyrimidin-8-yl)pyrrolidine-3-carbonitrile], the IC50 (OVCAR-3 cells) is reported as 500 to 2000 nM, the IC50 (CDK6/Cyclin D3) is reported as < 200 nM and the IC50 (MCF-7 cells) is reported as 500 to 2000 nM. The IC50 (CDK1/Cyclin B1) was 500 to 2000 nM, the IC50 (CDK4/Cyclin D1) was < 200 nM and the IC50 (CDK2/Cyclin E1) was < 200 nM.

With `Cc1cc2cnc(Nc3ccc4c(c3)CN(C3CN(S(C)(=O)=O)C3)C4)nc2c(N2CC3(CN(C)C3)C2)n1` [Compound 29, 6-methyl-8-(6-methyl-2,6-diazaspiro[3.3]heptan-2-yl)-N-(2-(1-(methylsulfonyl)azetidin-3-yl)isoindolin-5-yl)pyrido[3,4-d]pyrimidin-2-amine] the IC50 (OVCAR-3 cells) was > 2000 nM, the IC50 (CDK6/Cyclin D3) was 500 to 2000 nM and the IC50 (MCF-7 cells) was > 2000 nM. The IC50 (CDK1/Cyclin B1) was > 2000 nM, the IC50 (CDK4/Cyclin D1) was < 200 nM and the IC50 (CDK2/Cyclin E1) was 200 to 500 nM.

In the case of `Cc1cc2cnc(NC3CCN(S(C)(=O)=O)CC3)nc2c(N2CC3(CN(C)CC3(F)F)C2)n1` [Compound 101, 8-(8,8-difluoro-6-methyl-2,6-diazaspiro[3.4]octan-2-yl)-6-methyl-N-(1-(methylsulfonyl)piperidin-4-yl)pyrido[3,4-d]pyrimidin-2-amine], the IC50 (CDK6/Cyclin D3) is reported as < 200 nM, the IC50 (CDK1/Cyclin B1) is reported as 200 to 500 nM and the IC50 (CDK4/Cyclin D1) is reported as < 200 nM. For the same compound, the IC50 (CDK2/Cyclin E1) was < 200 nM.

In the case of `Cc1cc2cnc(NC3CCN(S(=O)(=O)C4CC4)CC3)nc2c(N2CC(F)(F)C3(CN(C)C3)C2)n1` [Compound 102, N-(1-(cyclopropylsulfonyl)piperidin-4-yl)-8-(8,8-difluoro-2-methyl-2,6-diazaspiro[3.4]octan-6-yl)-6-methylpyrido[3,4-d]pyrimidin-2-amine], the IC50 (CDK6/Cyclin D3) is reported as < 200 nM, the IC50 (CDK1/Cyclin B1) is reported as < 200 nM and the IC50 (CDK4/Cyclin D1) is reported as < 200 nM. The IC50 (CDK2/Cyclin E1) was < 200 nM.

For `[2H]C([2H])([2H])N1CC2(CN(c3nc(C)cc4cnc(NC5CCN(S(C)(=O)=O)CC5)nc34)CC2(F)F)C1` [Example 12, 8-(8,8-difluoro-2-(methyl-d3)-2,6-diazaspiro[3.4]octan-6-yl)-6-methyl-N-(1-(methylsulfonyl)piperidin-4-yl)pyrido [3,4-d]pyrimidin-2-amine], the IC50 (CDK6/Cyclin D3) was < 200 nM, the IC50 (CDK1/Cyclin B1) was < 200 nM and the IC50 (CDK4/Cyclin D1) was < 200 nM. For the same compound, the IC50 (CDK2/Cyclin E1) was < 200 nM.

In the case of `O=S(=O)(C1CC1)N1CCC(Nc2ncc3cc(C(F)F)nc(N4CC5(CCNC5)C4)c3n2)CC1` [Example 46], the IC50 (OVCAR-3 cells) is reported as 500 to 2000 nM, the IC50 (CDK6/Cyclin D3) is reported as < 200 nM and the IC50 (MCF-7 cells) is reported as 500 to 2000 nM. The IC50 (CDK1/Cyclin B1) was < 200 nM and the IC50 (CDK4/Cyclin D1) was < 200 nM.

With `Cc1cc2cnc(NC3CCN(S(C)(=O)=O)CC3)nc2c(C2CC(O)(C3CC3)C2)n1` (stereo not drawn) [Example 88, 1-cyclopropyl-3-(6-methyl-2-((1-(methylsulfonyl)piperidin-4-yl)amino)pyrido[3,4-d]pyrimidin-8-yl)cyclobutan-1-ol] the IC50 (CDK6/Cyclin D3) was < 200 nM, the IC50 (CDK1/Cyclin B1) was 200 to 500 nM and the IC50 (CDK4/Cyclin D1) was < 200 nM. The IC50 (CDK2/Cyclin E1) was < 200 nM.
